Measured values reported in patent US7488811B2, “Macrolide compounds endowed with antiinflammatory activity” (Zambon Group S.p.A., priority 2002, dated 2009).
≈ marks a conversion by molar mass, not a printed value.

Experiments:
[1] = tested on: PMA-induced oedema in mouse ear; test: Acute contact dermatitis: TPA (PMA)-induced ear oedema in mice; assay type: in vivo; conditions: CD1 mice, 500 μg/ear topical in TPDS 30 min before TPA 0.01%, 6 h
Description: Groups of 5-6 CD1 mice (18-24 g) were used. • Administration of the compounds
All the macrolide compounds were dissolved in Trans-phase Delivery System (TPDS), a vehicle formed by 10% benzyl alcohol, 40% acetone and 50% isopropanol.
15 microlitres of the compounds (500 μg), dissolved in TPDS, were applied topically to the inner surface of an ear; 30 minutes later, 12 microlitres of a solution of tetradecanoylphorbol acetate (TPA) at a concentration of 0.01% dissolved in acetone were applied to the same area.
Six hours later, the animals were sacrificed by inhalation of CO2. • Evaluation of the results
Two methods were used to evaluate the auricular oedema: • a) Weight of a given portion of auricular pinna. • b) Measurement of the auricular thickness using precision spring callipers.
The degree of oedema was calculated by subtracting the weight or the thickness of the untreated ear from that of the contralateral treated ear. To determine the degree of remission of the oedema, the difference (weight or thickness) of the groups treated with TPA+macrolides was then compared with the groups treated with TPA alone.
The activity of the macrolide compounds was measured by using the modified method of Zunic et al. (1998): MDL (Lysyl) GDP, a non-toxic muramyl dipeptide derivative inhibits cytokine production by activated macrophages and protects mice from phorbol ester- and oxazolone-induced inflammation (J. Invest. Dermatol., 111(1), 77-82).
The data relating to erythromycin and azythromycin concern the treatment with a single dose of 500 μg/ear.

[2] = tested on: LPS-induced accumulation of neutrophils in rat lungs; test: LPS-induced pulmonary inflammation in rats (neutrophil count in bronchial fluid wash); assay type: in vivo; conditions: single oral dose 100, 40, 10 μmol/kg one hour before LPS 0.4 mg/kg endotracheal, 20 h, erythromycin: single oral dose 130 μmol/kg; for ED50: Rattus norvegicus, Neutrophil, read-out: ED50 (dose inducing 50% reduction in neutrophil count in bronchial fluid wash)
Description: B) LPS-Induced Pulmonary Inflammation in Rats • Administration
The rats received endotracheally, via the peroral route, a single dose of 0.4 mg/kg of LPS (E. coli, serotype 026:6). The tracheal instillation was performed under anaesthesia with halothane and, 20 hours after the endotracheal administration of LPS/saline solution, the animals were sacrificed by means of an overdose of urethane. • Washing
The lungs were washed with 4 aliquots of 5 ml each of saline solution with 10 IU ml^−1 heparin. The cell suspension was concentrated by low-speed centrifugation and the cell pellet was suspended. • Counting of the Cells and Differentiation.
The total cell count was performed in a haemocytometer.
The differential counting was performed on cytospin preparations stained with May-Grunwald-Giemsa (Tamaoki J., Tagaya E., Yamawaki I., Sakai, Nagai A., Konno K, 1995. Effect of erythromycin on endotoxin-induced microvascular leakage in the rat trachea and lungs. Am. J. Respir. Crit. Care Med., 151, 1582-8). The rats received the test compounds orally in doses of 100, 40 and 10 μmol/kg as a single administration dose orally one hour before exposure to LPS.
ED50 value is the dose that induced a 50% reduction in the neutrophil count in the bronchial fluid wash.
The data relating to erythromycin refers to an oral treatment with a single dose of 130 μmol/kg.

[3] = tested on: Staphylococcus aureus ATCC 29213; test: Antibiotic activity, MIC in liquid medium; assay type: cell-based; conditions: ATCC29213, Staph. aureus ATCC 29213
Description: (§1) The MIC values were determined in liquid earth according to the method described in “Manual of Clinical Microbiology, 7th edition (1999), American Society for Microbiology”.

[4] = tested on: Streptococcus pneumoniae ATCC 49619; test: Antibiotic activity, MIC in liquid medium; assay type: cell-based; conditions: ATCC49619, Strep. pneum ATTC 49619
Description: as §1

[5] = tested on: Enterococcus faecalis ATCC 29212; test: Antibiotic activity, MIC or activity at 128 μg/ml; assay type: cell-based; conditions: Enter. faecalis ATCC 29212; for MIC: Enterococcus faecalis, ATCC29212
Description: as §1

[6] = tested on: Staphylococcus aureus ATCC 6538; test: Antibiotic activity at 128 μg/ml; assay type: cell-based; conditions: Staph. aureus ATCC 6538
Description: as §1

[7] = tested on: Streptococcus pyogenes ATCC 19615; test: Antibiotic activity at 128 μg/ml; assay type: cell-based; conditions: Strep. pyogenes ATTC 19615
Description: as §1

[8] = Water solubility noted at work-up; assay type: physicochemical; conditions: remark in the work-up
Description: Compound 19 was prepared from intermediate 28 (600 mg, 0.64 mmol) according to the procedures described for compound 1. Given that the product is water-soluble, the crude solid was dissolved in water (50′ ml) and washed with CH2Cl2 (3×20 ml). The solvent was evaporated from the aqueous phase under vacuum and dried to give compound 19 (480 mg, 95% yield) as a crystalline solid. • [M+1]^+ 775

[9] = method a: weight of a given portion of auricular pinna

Row | MIC [3] [µg/mL] | MIC [4] [µg/mL] | MIC [5] [µg/mL] | Solubility in water [8] | MIC ([6]; Staphylococcus aureus, ATCC6538) [µg/mL] | MIC ([7]; Streptococcus pyogenes, ATCC19615) [µg/mL] | Structure (SMILES) | inhibition in vivo at 500 µg/ear [1, 9] [%] | ED50 [2] [µmol/kg] | Antibiotic activity at 128 μg/ml ([5]; 128 μg/ml) | Antibiotic activity at 128 μg/ml ([6]; 128 μg/ml) | Antibiotic activity at 128 μg/ml ([7]; 128 μg/ml) | inhibition in vivo at 500 µg/ear ([1]; method b: auricular thickness by precision spring callipers) [%] | ED50 (dose inducing 50% reduction in neutrophil count in bronchial fluid wash) [2]
1 | > 128 | > 128 | > 128 |  |  |  | CC[C@H]1OC(=O)[C@H](C)[C@@H](O)[C@H](C)[C@@H](O[C@@H]2O[C@H](C)C[C@H](N(C)C(C)=O)[C@H]2O)C(C)(O)C[C@@H](C)[C@H](O)[C@H](C)[C@@H](O)[C@]1(C)O (stereo partly shown) [Compound 1] | 65.6 | 7 | not active | not active | not active |  | 
2 |  |  |  |  |  |  | CC[C@H]1OC(=O)[C@H](C)[C@@H](O)[C@H](C)[C@@H](O[C@@H]2O[C@H](C)CC[C@H]2O)C(C)(O)C[C@@H](C)/C(=N\O)[C@H](C)[C@@H](O)[C@]1(C)O (stereo partly shown) [Compound 14] | 71.5 | 15 |  |  |  |  | 
3 | > 128 | 16 (≈ 20.7 µM) | > 128 | water-soluble |  |  | CC[C@H]1OC(=O)[C@H](C)[C@@H](O)[C@H](C)[C@H](O[C@@H]2O[C@H](C)CC(N(C)C)[C@@H]2O)[C@](C)(O)C[C@@H](C)/C(=N\OCCNCCNCc2nccs2)[C@H](C)[C@H](O)[C@]1(C)O (stereo partly shown) [Compound 19] |  |  |  |  |  | 28.2 | 
4 | 0.25 (≈ 0.341 µM) | 0.12 (≈ 0.164 µM) | 1 (≈ 1.36 µM) |  | 0.25 (≈ 0.341 µM) | 0.12 (≈ 0.164 µM) | CC[C@H]1OC(=O)[C@H](C)[C@@H](O[C@H]2C[C@@](C)(OC)[C@@H](O)[C@H](C)O2)[C@H](C)[C@@H](O[C@@H]2O[C@H](C)C[C@H](N(C)C)[C@H]2O)[C@](C)(O)C[C@@H](C)C(=O)[C@H](C)[C@@H](O)[C@]1(C)O [Erythromycin, reference compound] | 42 |  |  |  |  |  | Not active
